24 molecules from BindingDB's records for doi:10.1002/1439-7633(20020902)3:9 (New York University, 2002) can be followed below.

The target of this test is Inositol-trisphosphate 3-kinase A (Homo sapiens, UniProt P23677). Put plainly: Inhibition Assay. The conditions noted are these: pH 8; 37 °C. As to the method:
IP3K reactions were carried out in a 100ul solution that contained Tris-Cl, EGTA, ATP, DTT, 2,3-diphosphoglycerate, D-l(1,4,5)P3, [3H]-l(1,4,5)P3 and various amounts of synthetic purine analogues.

Inositol-trisphosphate 3-kinase A, sequence (P23677 whole entry): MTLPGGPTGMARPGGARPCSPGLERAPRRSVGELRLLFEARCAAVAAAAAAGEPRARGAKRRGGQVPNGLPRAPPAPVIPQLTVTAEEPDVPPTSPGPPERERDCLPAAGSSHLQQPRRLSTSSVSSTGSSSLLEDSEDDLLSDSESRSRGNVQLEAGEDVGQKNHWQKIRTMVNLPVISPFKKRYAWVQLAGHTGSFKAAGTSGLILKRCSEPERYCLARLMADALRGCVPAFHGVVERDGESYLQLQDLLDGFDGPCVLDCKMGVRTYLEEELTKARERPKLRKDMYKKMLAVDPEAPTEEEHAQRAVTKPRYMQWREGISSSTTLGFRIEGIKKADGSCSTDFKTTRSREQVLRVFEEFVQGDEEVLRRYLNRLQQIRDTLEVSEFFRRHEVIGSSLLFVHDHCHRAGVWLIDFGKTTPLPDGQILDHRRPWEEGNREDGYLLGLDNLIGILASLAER

Regarding `Cn1cnc2c(NCc3ccc(N)cc3)nc(NCc3cccc(C(F)(F)F)c3)nc21` [Purine, 1], half-maximal inhibition (IC50) was put at 57.1 µM.

Consider `Nc1ccc(CNc2nc(NCc3cccc(C(F)(F)F)c3)nc3nc[nH]c23)cc1` [Purine, 2], for which the IC50 is 13.5 µM. Compared with the last molecule, the IC50 is about 4.2-fold lower.

`FC(F)(F)c1cccc(CNc2nc(NCc3ccccc3)c3nc[nH]c3n2)c1` [Purine, 3]: the IC50 worked out at 13.7 µM.

Molecule `FC(F)(F)c1cccc(CNc2nc(NCc3ccccc3)c3ncn(C4CCCCO4)c3n2)c1` (stereo not given) [Purine, 4] returned an IC50 of 43.4 µM.

The molecule `O=[N+]([O-])c1ccc(CNc2nc(NCc3cccc(C(F)(F)F)c3)nc3[nH]cnc23)cc1` [Purine, 5] showed an IC50 of 10.2 µM and a Ki of 4.3 µM.

In the case of `Clc1cccc(CNc2nc(NCc3ccccc3)c3[nH]cnc3n2)c1` [Purine, 6], the IC50 is 150 µM.

The molecule `Clc1ccc(CNc2nc(NCc3ccccc3)c3[nH]cnc3n2)cc1` [Purine, 7] had an IC50 of 138 µM.

`FC(F)(F)c1ccc(CNc2nc(NCc3ccc(C(F)(F)F)cc3)c3[nH]cnc3n2)cc1` [Purine, 8] came in with an IC50 of 102 µM. The IC50 values of the last two molecules are within 1.5-fold of each other.

Molecule `Fc1ccc(CNc2nc(NCc3ccccc3)c3[nH]cnc3n2)cc1` [Purine, 9] came in with an IC50 of 220 µM.

Regarding `Clc1ccc(CNc2nc(Nc3ccccc3)c3[nH]cnc3n2)cc1` [Purine, 10], the IC50 worked out at 150 µM.

Turning to `COc1ccc(CNc2nc(NCc3cccc(C(F)(F)F)c3)nc3c2ncn3C(C)C)cc1` [Purine, 11], the IC50 is above 200 µM.

`CC(C)n1cnc2c(Nc3cccc(Cl)c3)nc(NCc3cccc(C(F)(F)F)c3)nc21` [Purine, 12] returned an IC50 above 200 µM.

`c1ccc(CNc2nc(NCc3ccc4ccccc4c3)nc3nc[nH]c23)cc1` [Purine, 13]: the IC50 came out at 63 µM.

`NCc1cccc(CNc2nc(NCc3ccccc3)c3[nH]cnc3n2)c1` [Purine, 14] came in with an IC50 above 200 µM.

As for `CC(Nc1nc(NCc2ccccc2)c2[nH]cnc2n1)c1ccccc1` (stereo not given) [Purine, 15], half-maximal inhibition (IC50) was put at 117 µM.

`O=[N+]([O-])c1cccc(CNc2nc(NCc3ccccc3Cl)nc3nc[nH]c23)c1` [Purine, 16]: the IC50 was above 200 µM.

In turn, `O=[N+]([O-])c1ccc(CNc2nc(NCc3ccccc3C(F)(F)F)nc3nc[nH]c23)cc1` [Purine, 17] displayed an IC50 of 18.2 µM.

The molecule `O=[N+]([O-])c1ccc(CNc2nc(NCc3ccc(C(F)(F)F)cc3)nc3nc[nH]c23)cc1` [Purine, 18] registered an IC50 of 67.6 µM.

`O=[N+]([O-])c1ccc(CNc2nc(NCc3ccccc3F)nc3nc[nH]c23)cc1` [Purine, 19]: half-maximal inhibition (IC50) required 23.4 µM.

For `O=[N+]([O-])c1ccc(CNc2nc(NCc3cccc(F)c3)nc3nc[nH]c23)cc1` [Purine, 20], the IC50 was 49 µM. This IC50 is about 2.1-fold higher than that of the molecule before.

`O=[N+]([O-])c1ccc(CNc2nc(NCc3ccc(F)cc3)nc3nc[nH]c23)cc1` [Purine, 21] came in with an IC50 of 28.8 µM. Compared with the last molecule, the IC50 is about 1.7-fold lower.

Consider `O=[N+]([O-])c1ccc(CNc2nc(NCc3ccccc3Cl)nc3nc[nH]c23)cc1` [Purine, 22], for which the IC50 came to 28 µM.

`O=[N+]([O-])c1ccc(CNc2nc(NCc3cccc(Cl)c3)nc3nc[nH]c23)cc1` [Purine, 23] registered a concentration for half-maximal inhibition (IC50) of 20 µM.

In the case of `O=[N+]([O-])c1ccc(CNc2nc(NCc3ccc(Cl)cc3)nc3nc[nH]c23)cc1` [Purine, 24], the IC50 came out at 12.7 µM. Compared with the last molecule, the IC50 is about 1.6-fold lower.
